Test results from PMC7155171, “Probing the Open Global Health Chemical Diversity Library for Multistage-Active Starting Points for Next-Generation Antimalarials” (ACS Infectious Diseases, 2020).
Where two headings read alike, the source gives them in different places.

Key:
[1] = system: P. falciparum Dd2; experiment: SYBR green I asexual blood stage proliferation assay (96 h); type: cell-based, Plasmodium falciparum; conditions: Plasmodium falciparum, DD2, 11-pt dose response, 96hr
[2] = system: P. falciparum Dd2 (PfLuc) line expressing firefly luciferase, asexual blood stage; experiment: microbe, parasite or virus in culture; type: cell-based, Plasmodium falciparum; conditions: for IC50 / Emax: Plasmodium falciparum
[3] = Sybr Green I, read-out: CDD P. falciparum Sybr Green I ABS 11-pt Reconfirmation Dose Response (96hr): IC50
[4] = Sybr Green I, read-out: CDD P. falciparum Sybr Green I ABS 11-pt Reconfirmation Dose Response (96hr): Maximum inhibition (%)
[5] = DD2, read-out: CDD P. falciparum Luciferase ABS 11-pt Reconfirmation Dose Response (48hr): IC50 (μM), 11-pt dose response, 48hr
[6] = DD2, 8-pt dose response, 96hr, read-out: CDD P. falciparum Luciferase ABS 8-pt Reconfirmation Dose Response (96hr): IC50
[7] = DD2, 8-pt dose response, 96hr, read-out: CDD P. falciparum Luciferase ABS 8-pt Reconfirmation Dose Response (96hr): Maximum inhibition (%)
[8] = DD2, 11-pt dose response, 48hr, read-out: CDD P. falciparum Luciferase ABS 11-pt Reconfirmation Dose Response (48hr): Maximum inhibition (%)
[9] = DD2, 11-pt dose response, 96hr, read-out: CDD P. falciparum Luciferase ABS 11-pt Reconfirmation Dose Response (96hr): IC50
[10] = DD2, 11-pt dose response, 96hr, read-out: CDD P. falciparum Luciferase ABS 11-pt Reconfirmation Dose Response (96hr): Maximum inhibition (%)
[11] = read-out: P. falciparum Sybr Green I ABS 11-pt Reconfirmation Dose Response (96hr): IC50
[12] = read-out: P. falciparum Sybr Green I ABS 11-pt Reconfirmation Dose Response (96hr): Maximum inhibition (%)
[13] = DD2, read-out: P. falciparum Luciferase ABS 11-pt Reconfirmation Dose Response (48hr): IC50, 11-pt dose response, 48hr
[14] = DD2, 8-pt dose response, 96hr, read-out: P. falciparum Luciferase ABS 8-pt Reconfirmation Dose Response (96hr): IC50
[15] = DD2, 8-pt dose response, 96hr, read-out: P. falciparum Luciferase ABS 8-pt Reconfirmation Dose Response (96hr): Maximum inhibition (%)
[16] = DD2, 11-pt dose response, 48hr, read-out: P. falciparum Luciferase ABS 11-pt Reconfirmation Dose Response (48hr): Maximum inhibition (%)
[17] = DD2, 11-pt dose response, 96hr, read-out: P. falciparum Luciferase ABS 11-pt Reconfirmation Dose Response (96hr): IC50
[18] = DD2, 11-pt dose response, 96hr, read-out: P. falciparum Luciferase ABS 11-pt Reconfirmation Dose Response (96hr): Maximum inhibition (%)

| SMILES | IC50 [1, 3] [nM] | Emax [1, 4] [%] | IC50 [2, 5] [µM] | IC50 [2, 6] [µM] | Emax [2, 7] [%] | Emax [2, 8] [%] | IC50 [2, 9] [µM] | Emax [2, 10] [%] | IC50 [1, 11] [nM] | Emax [1, 12] [%] | IC50 [2, 13] [µM] | IC50 [2, 14] [µM] | Emax [2, 15] [%] | Emax [2, 16] [%] | IC50 [2, 17] [µM] | Emax [2, 18] [%] | activity in ABS screens [2] |
| --- | --- | --- | --- | --- | --- | --- | --- | --- | --- | --- | --- | --- | --- | --- | --- | --- | --- |
| Cc1cc(CN2CCC(CNS(=O)(=O)c3ccc(Br)s3)CC2)c(C)o1 [DDD01027665] | > 12500 | 32.7 | 3.89 | 0.63 | 89.4 | 82 | 1.08 | 95 | – | – | – | – | – | – | – | – | – |
| COc1ccc(CCC(=O)NCCN2CCC(c3cccs3)CC2)cc1 [DDD01028015] | 4170 | 71.9 | 11.4 | 0.95 | 85.7 | 69.6 | 2.24 | 86.6 | – | – | – | – | – | – | – | – | – |
| O=C(NCCc1ccccc1)NCCN1CCC(c2cccs2)CC1 [DDD01028018] | – | – | – | – | – | – | – | – | > 4160 | 69.6 | 5.18 | 1.18 | 87.7 | 64 | 1.42 | 87.1 | – |
| COc1ccc(NC(=O)Nc2cnc(N3CCN(C)CC3)nc2)cc1Cl [DDD01028129] | – | – | – | – | – | – | – | – | > 12500 | 38.2 | > 12.5 | 1.39 | 94.1 | 14.8 | 4.41 | 57.8 | – |
| c1ccc(C[C@H]2CN(C3CCOCC3)CC[C@H]2OCC2CC2)cc1 [DDD01028772] | 7170 | 69.9 | > 12.5 | 0.69 | 87 | 70.2 | 1.04 | 91.3 | – | – | – | – | – | – | – | – | – |
| CN1CCC2(CCCN(c3nccc(C(F)(F)F)n3)C2)CC1 [DDD01028783] | 8820 | 74 | > 12.5 | 0.75 | 87.2 | 60.6 | 3.57 | 84.9 | – | – | – | – | – | – | – | – | – |
| CC(C)N1CCC2(CCCN(c3nccc(C(F)(F)F)n3)C2)CC1 [DDD01028790] | 9750 | 76.4 | 3.12 | 0.61 | 89.3 | 69 | 1.33 | 91.1 | – | – | – | – | – | – | – | – | – |
| Fc1cccc(CN2C[C@@H]3CN(Cc4ccccn4)C[C@@H]3C2)c1 [DDD01029091] | 2340 | – | 1.16 | 0.62 | 95.3 | 94 | 0.354 | 100 | – | – | – | – | – | – | – | – | – |
| NCC1[C@H]2CN(Cc3cccc(Cl)c3)C[C@@H]12 (stereo partly shown) [DDD01029240] | 1890 | 90.7 | 2.68 | 0.55 | 93.8 | 85 | 1.2 | 99 | – | – | – | – | – | – | – | – | – |
| c1ccc(CN2CCCC3(CCN(Cc4cccs4)C3)C2)nc1 (stereo not shown) [DDD01029520] | – | – | – | – | – | – | – | – | > 4160 | 58 | 6.38 | 1.97 | 83.5 | 51.8 | 2.96 | 86.9 | – |
| c1ccc(N2CCCC3(CCN(Cc4ccsc4)C3)C2)nc1 (stereo not shown) [DDD01029521] | 1880 | 66.8 | 3.75 | 1.02 | 83.9 | 64.3 | 2.51 | 86.9 | – | – | – | – | – | – | – | – | – |
| Fc1ccc(CN2CCC3(CC2)CCN(Cc2nccs2)CC3)cc1 [DDD01031337] | > 1390 | 71.7 | 8.85 | 0.78 | 88.8 | 69.4 | 1.46 | 87.9 | – | – | – | – | – | – | – | – | – |
| Cc1ccc(CN2CCC3(CC2)CCN(Cc2ccoc2)CC3)cc1 [DDD01031590] | 2330 | – | 2.04 | 0.24 | 94.3 | 86.7 | 0.444 | 99.4 | – | – | – | – | – | – | – | – | – |
| Cc1ccc(CN2CCC3(CC2)CCN(Cc2ccco2)CC3)cc1 [DDD01031591] | 6720 | 84.1 | 7.27 | 0.77 | – | 74.1 | 0.938 | 94.4 | – | – | – | – | – | – | – | – | – |
| CN1[C@H](Cn2cccn2)C[C@@H]2CN(Cc3cccs3)CC[C@@H]21 [DDD01032287] | > 4160 | 67.6 | > 12.5 | 0.77 | 80.2 | 45.9 | > 1.39 | 85.9 | – | – | – | – | – | – | – | – | – |
| c1cncc(N2CCCC3(CCN(CCN4CCCC4)CC3)C2)c1 [DDD01032557] | – | – | – | – | – | – | – | – | 2440 | 93.7 | 7.21 | 1.19 | – | 83.2 | 1.41 | 99.7 | – |
| CN(C)[C@@H]1CCN(c2ncc(F)cn2)[C@H]1Cc1ccccc1 [DDD01033375] | > 4160 | 74.6 | 5.55 | 1.11 | 86.7 | 53.2 | 2.25 | 86.9 | – | – | – | – | – | – | – | – | – |
| CCN1CCC2(CC1)CC(NCc1cccs1)c1ccccc1O2 (stereo not shown) [DDD01034117] | 3400 | 78.6 | 2.44 | 0.39 | 91.4 | 72.4 | 0.515 | 91.9 | – | – | – | – | – | – | – | – | – |
| CCN1CCC2(CC1)CC(NCc1cccc(C)n1)c1ccccc1O2 (stereo not shown) [DDD01034133] | 10300 | 79.5 | 11.7 | 0.72 | – | 67.5 | 3.23 | 88.1 | – | – | – | – | – | – | – | – | – |
| CCN1CCC2(CC1)CC(NCc1ccncc1)c1ccccc1O2 (stereo not shown) [DDD01034171] | > 4160 | 74 | > 12.5 | 0.75 | 87.7 | 61.8 | 3.05 | 86 | – | – | – | – | – | – | – | – | – |
| COc1ccc(N2CCCC3(C2)CN(c2nncs2)CCO3)cc1 (stereo not shown) [DDD01034473] | 830 | 95.3 | 0.758 | 0.2 | 95 | – | 0.451 | 97.9 | – | – | – | – | – | – | – | – | – |
| CCOc1ccc(Br)cc1C1CCCCN1 (stereo not shown) [DDD01034784] | 2780 | 65.2 | > 12.5 | 0.81 | 86.8 | 60 | > 1.39 | 90.9 | – | – | – | – | – | – | – | – | – |
| CCOc1ccc(Br)cc1C1CCCN1 (stereo not shown) [DDD01034787] | 7590 | 78.7 | 4.88 | 0.85 | 85.8 | 59.1 | 1.38 | 86.3 | – | – | – | – | – | – | – | – | – |
| Cc1c(C)n(CC(O)CN2CCN(CCO)CC2)c2c(Cl)cccc12 (stereo not shown) [DDD01034970] | – | – | – | – | – | – | – | – | > 4160 | 73.1 | 3.79 | 1.15 | 85.4 | 86.8 | 2.24 | 95.9 | – |
| CC(N)Cc1ccccc1Sc1ccccc1 (stereo not shown) [DDD01035540] | – | – | – | – | – | – | – | – | 4170 | 86.1 | 3.57 | 1.63 | 92 | 89.6 | 0.558 | 98.2 | – |
| c1ccc(Sc2ccc3c(c2)OCO3)c(CNC2=NCCN2)c1 [DDD01035544] | > 4160 | 65.9 | 7.86 | 1.05 | 85.5 | 75 | 1.67 | 95.1 | – | – | – | – | – | – | – | – | – |
| CN(C)[C@@H]1CCN(c2ncccn2)[C@H]1Cc1ccccc1 [DDD01036700] | > 4160 | 74.7 | > 12.5 | 0.85 | 85.6 | 47.6 | 2.4 | 80.9 | – | – | – | – | – | – | – | – | – |
| CC(O)c1cccc(Nc2nc(NCCO)c3ccccc3n2)c1 (stereo not shown) [DDD01037968] | 3130 | 95.8 | 2.9 | 0.29 | 92.4 | 96.3 | 0.739 | 99.6 | – | – | – | – | – | – | – | – | active in ABS screens |
| CCN(CC)CCNS(=O)(=O)c1cccc(CSC)c1 [DDD01038216] | 7550 | 73.7 | 10.2 | 0.58 | 87.3 | 58.8 | 2.99 | 89.5 | – | – | – | – | – | – | – | – | – |
| Oc1ccc(Cl)cc1CNCc1ccccc1Cl [DDD01038243] | > 12500 | 34.6 | > 12.5 | 1.02 | 90.3 | 59.4 | 4.2 | 88.4 | – | – | – | – | – | – | – | – | – |
